{"source": "patent US7652055B2", "about": "“2-imidazolines” (Hoffman-La Roche Inc., priority 2007, dated 2010)"}
{"target": "T1, TAAR1 (Mus musculus, UniProt Q923Y8)", "T1 construct": "expressed in transfected cells; host or cells: HEK293 (ATCC # CRL-1573), stably transfected with pIRESneo2 expression plasmid; membranes prepared", "T1 sequence (Q923Y8 whole entry)": "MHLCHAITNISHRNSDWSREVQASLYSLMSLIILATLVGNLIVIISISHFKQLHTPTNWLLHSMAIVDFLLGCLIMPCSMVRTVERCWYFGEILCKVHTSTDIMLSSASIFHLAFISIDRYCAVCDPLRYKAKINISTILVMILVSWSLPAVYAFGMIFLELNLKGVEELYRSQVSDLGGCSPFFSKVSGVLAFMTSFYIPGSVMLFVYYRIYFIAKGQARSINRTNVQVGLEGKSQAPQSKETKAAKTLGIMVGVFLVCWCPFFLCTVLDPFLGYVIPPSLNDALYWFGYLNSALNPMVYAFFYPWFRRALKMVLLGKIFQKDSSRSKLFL", "assay": "Radioligand binding assay on membranes of HEK293 cells stably expressing TAAR1", "details": "mouse TAAR1; radioligand [3H]-rac-2-(1,2,3,4-tetrahydro-1-naphthyl)-2-imidazoline at 60 nM; 4° C., 30 min", "protocol": "(§1) Construction of TAAR Expression Plasmids and Stably Transfected Cell Lines\n(§2) For the construction of expression plasmids the coding sequences of human, rat and mouse TAAR 1 were amplified from genomic DNA essentially as described by Lindemann et al.. The Expand High Fidelity PCR System (Roche Diagnostics) was used with 1.5 mM Mg^2+ and purified PCR products were cloned into pCR2.1-TOPO cloning vector (Invitrogen) following the instructions of the manufacturer. PCR products were subcloned into the pIRESneo2 vector (BD Clontech, Palo Alto, Calif.), and expression vectors were sequence verified before introduction in cell lines.\n(§3) HEK293 cells (ATCC # CRL-1573) were cultured essentially as described Lindemann et al. (2005). For the generation of stably transfected cell lines HEK293 cells were transfected with the pIRESneo2 expression plasmids containing the TAAR coding sequences (described above) with Lipofectamine 2000 (Invitrogen) according to the instructions of the manufacturer, and 24 hrs post transfection the culture medium was supplemented with 1 mg/ml G418 (Sigma, Buchs, Switzerland). After a culture period of about 10 d clones were isolated, expanded and tested for responsiveness to trace amines (all compounds purchased from Sigma) with the cAMP Biotrak Enzyme immunoassay (EIA) System (Amersham) following the non-acetylation EIA procedure provided by the manufacturer.\n(§4) Membrane Preparation and Radioligand Binding\n(§5) Cells at confluence were rinsed with ice-cold phosphate buffered saline without Ca^2+ and Mg^2+ containing 10 mM EDTA and pelleted by centrifugation at 1000 rpm for 5 min at 4° C. The pellet was then washed twice with ice-cold phosphate buffered saline and cell pellet was frozen immediately by immersion in liquid nitrogen and stored until use at −80° C. Cell pellet was then suspended in 20 ml HEPES-NaOH (20 mM), pH 7.4 containing 10 mM EDTA, and homogenized with a Polytron (PT 3000, Kinematica) at 10,000 rpm for 10 s. The homogenate was centrifuged at 48,000×g for 30 min at 4° C. and the pellet resuspended in 20 ml HEPES-NaOH (20 mM), pH 7.4 containing 0.1 mM EDTA (buffer A), and homogenized with a Polytron at 10,000 rpm for 10 s. The homogenate was then centrifuged at 48,000×g for 30 min at 4° C. and the pellet resuspended in 20 ml buffer A, and homogenized with a Polytron at 10,000 rpm for 10 s. Protein concentration was determined by the method of Pierce (Rockford, Ill.). The homogenate was then centrifuged at 48,000×g for 10 min at 4° C., resuspended in HEPES-NaOH (20 mM), pH 7.0 including MgCl2 (10 mM) and […] homogenized with a Polytron at 10,000 rpm for 10 s.\n(§6) Binding assay was performed at 4° C. in a final volume of 1 ml, and with an incubation time of 30 min. The radioligand [^3H]-rac-2-(1,2,3,4-tetrahydro-1-naphthyl)-2-imidazoline was used at a concentration equal to the calculated Kd value of 60 nM to give a bound at around 0.1% of the total added radioligand concentration, and a specific binding which represented approximately 70-80% of the total binding. Non-specific binding was defined as the amount of [^3H]-rac-2-(1,2,3,4-tetrahydro-1-naphthyl)-2-imidazoline bound in the presence of the appropriate unlabelled ligand (10 μM). Competing ligands were tested in a wide range of concentrations (10 pM-30 μM). […] Each experiment was performed in duplicate. All incubations were terminated by rapid filtration through UniFilter-96 plates (Packard Instrument Company) and glass filter GF/C, pre-soaked for at least 2 h in polyethylenimine 0.3%, and using a Filtermate 96 Cell Harvester (Packard Instrument Company). The tubes and filters were then washed 3 times with 1 ml aliquots of cold buffer B. Filters were not dried and soaked in Ultima gold (45 μl/well, Packard Instrument Company) and bound radioactivity was counted by a TopCount Microplate Scintillation Counter (Packard Instrument Company).", "units": {"Ki": "µM"}}
{"smiles": "Clc1cc(NCC2=NCCN2)ccc1Br", "note": "[Example 1, (4-Bromo-3-chloro-phenyl)-(4,5-dihydro-1H-imidazol-2-ylmethyl)-amine]", "Ki": 0.0022}
{"smiles": "Fc1cc(NCC2=NCCN2)ccc1Cl", "note": "[Example 2, (4-Chloro-3-fluoro-phenyl)-(4,5-dihydro-1H-imidazol-2-ylmethyl)-amine]", "Ki": 0.0011}
{"smiles": "CN(CC1=NCCN1)c1cccc(Cl)c1", "note": "[Example 3, (3-Chloro-phenyl)-(4,5-dihydro-1H-imidazol-2-ylmethyl)-methyl-amine]", "Ki": 0.0084}
{"smiles": "CN(CC1=NCCN1)c1ccc(Cl)c(Cl)c1", "note": "[Example 4, (3,4-Dichloro-phenyl)-(4,5-dihydro-1H-imidazol-2-ylmethyl)-methyl-amine]", "Ki": 0.0059}
{"smiles": "Cc1c(NCC2=NCCN2)ccc2occc12", "note": "[Example 7, (4,5-Dihydro-1H-imidazol-2-ylmethyl)-(4-methyl-benzofuran-5-yl)-amine]", "Ki": 0.0028}
{"smiles": "COc1ccc(Cc2ccc(NCC3=NCCN3)cc2)cc1", "note": "[Example 8, (4,5-Dihydro-1H-imidazol-2-ylmethyl)-[4-(4-methoxy-benzyl)-phenyl]-amine]", "Ki": 0.0443}
{"smiles": "COc1ccccc1N(C)CC1=NCCN1", "note": "[Example 9, (4,5-Dihydro-1H-imidazol-2-ylmethyl)-(2-methoxy-phenyl)-methyl-amine]", "Ki": 0.0432}
{"smiles": "CC(C)Oc1ccc(C(=O)CCc2ccc(OC(C)C3=NCCN3)cc2)cc1", "note": "(stereo not drawn) [Example 12, 3-{4-[1-(4,5-Dihydro-1H-imidazol-2-yl)-ethoxy]-phenyl}-1-(4-isopropoxy-phenyl)-propan-1-one]", "Ki": 0.0158}
{"smiles": "CC(C)Oc1ccc(OCc2ccc(OCC3=NCCN3)cc2)cc1", "note": "[Example 13, 2-[4-(4-Isopropoxy-phenoxymethyl)-phenoxymethyl]-4,5-dihydro-1H-imidazole]", "Ki": 0.025}
{"smiles": "c1ccc(Cc2cccc(OCC3=NCCN3)c2)cc1", "note": "[Example 14, 2-(3-Benzyl-phenoxymethyl)-4,5-dihydro-1H-imidazole]", "Ki": 0.0054}
{"smiles": "c1ccc(CCCc2ccc(OCC3=NCCN3)cc2)cc1", "note": "[Example 15, 2-[4-(3-Phenyl-propyl)-phenoxymethyl]-4,5-dihydro-1H-imidazole]", "Ki": 0.0441}
{"smiles": "c1cc2ccc(OCC3=NCCN3)cc2o1", "note": "[Example 17, 2-(Benzofuran-6-yloxymethyl)-4,5-dihydro-1H-imidazole]", "Ki": 0.0372}
{"smiles": "FC(F)(F)c1cccc(OCC2=NCCN2)c1Cl", "note": "[Example 20, 2-(2-Chloro-3-trifluoromethyl-phenoxymethyl)-4,5-dihydro-1H-imidazole]", "Ki": 0.0016}
{"smiles": "Fc1cccc(OCC2=NCCN2)c1F", "note": "[Example 21, 2-(2,3-Difluoro-phenoxymethyl)-4,5-dihydro-1H-imidazole]", "Ki": 0.0341}
{"smiles": "Cc1c(O)ccc(OCC2=NCCN2)c1C", "note": "[Example 24, 4-(4,5-Dihydro-1H-imidazol-2-ylmethoxy)-2,3-dimethyl-phenol]", "Ki": 0.093}
{"smiles": "Clc1ccc(OCC2=NCCN2)cc1Cl", "note": "[Example 27, 2-(3,4-Dichloro-phenoxymethyl)-4,5-dihydro-1H-imidazole]", "Ki": 0.0329}
{"smiles": "Clc1cccc(SCC2=NCCN2)c1Cl", "note": "[Example 31, 2-(2,3-Dichloro-phenylsulfanylmethyl)-4,5-dihydro-1H-imidazole]", "Ki": 0.0075}
{"smiles": "Cc1ccc(NNC2=NCCN2)cc1C", "note": "[Example 35, N-(4,5-Dihydro-1H-imidazol-2-yl)-N′-(3,4-dimethyl-phenyl)-hydrazine]", "Ki": 0.044}
{"smiles": "Clc1ccc(NCC2=NCCN2)cc1", "note": "[Example K1, (4-Chloro-phenyl)-(4,5-dihydro-1H-imidazol-2-ylmethyl)-amine]", "Ki": 0.023}
{"smiles": "Clc1cccc(NCC2=NCCN2)c1", "note": "[Example K2, (3-Chloro-phenyl)-(4,5-dihydro-1H-imidazol-2-ylmethyl)-amine]", "Ki": 0.007}
{"smiles": "Clc1ccccc1OCC1=NCCN1", "note": "[Example K10, 2-(2-Chloro-phenoxymethyl)-4,5-dihydro-1H-imidazole]", "Ki": 0.064}
{"smiles": "Clc1cccc(OCC2=NCCN2)c1Cl", "note": "[Example K12, 2-(2,3-Dichloro-phenoxymethyl)-4,5-dihydro-1H-imidazole]", "Ki": 0.0063}
{"smiles": "FC(F)(F)c1cccc(OCC2=NCCN2)c1", "note": "[Example K17, 2-(3-Trifluoromethyl-phenoxymethyl)-4,5-dihydro-1H-imidazole]", "Ki": 0.0913}
{"smiles": "c1ccc(C2CC2)c(OCC2=NCCN2)c1", "note": "[Example K20, 2-(2-Cyclopropyl-phenoxymethyl)-4,5-dihydro-1H-imidazole]", "Ki": 0.0325}
{"smiles": "CC(Oc1c(Cl)cccc1Cl)C1=NCCN1", "note": "(stereo not drawn) [Example K21, 2-[1-(2,6-Dichloro-phenoxy)-ethyl]-4,5-dihydro-1H-imidazole]", "Ki": 0.0262}
{"smiles": "Cc1c(Cl)cccc1NNC1=NCCN1", "note": "[Example K25, N-(3-Chloro-2-methyl-phenyl)-N′-(4,5-dihydro-1H-imidazol-2-yl)-hydrazine]", "Ki": 0.0057}
{"target": "T1, TAAR1", "assay": "Radioligand binding assay on membranes of HEK293 cells stably expressing TAAR1", "details": "radioligand of the binding assay; TAAR1 species not stated at this place; read-out: calculated Kd value of the radioligand", "protocol": "as §1, §2, §3, §4, §5, §6", "units": {"Kd": "nM"}}
{"smiles": "c1ccc2c(c1)CCCC2C1=NCCN1", "note": "(racemic) [[^3H]-rac-2-(1,2,3,4-tetrahydro-1-naphthyl)-2-imidazoline, reference compound]", "Kd": 60}
